Results: patent US20130122541A1, “MICROORGANISM PRODUCTION OF HIGH-VALUE CHEMICAL PRODUCTS, AND RELATED COMPOSITIONS, METHODS AND SYSTEMS” (The Regents of the University of Colorado, priority 2010, published 2013)
In brackets after ≈: the same amount, converted by molar mass. Read-outs that look alike come from different tables or passages of the source.

Legend:
E. coli = test: microbe, parasite or virus in culture; format: cell-based; conditions: anaerobic
Description: (§1) For MIC evaluations, the final results are expressed in chemical agent concentrations determined by analysis of the stock solution by HPLC (i.e., see Subsection IIIb).
(§2) The minimum inhibitory concentration (MIC) was determined anaerobically in a 96 well-plate format. […] Media supplements were added according to levels reported in the Supplements Table, where specified. Overnight cultures of strains were grown in triplicate in 5 mL LB (with antibiotic where appropriate). A 1% (v/v) inoculum was introduced into a 5 ml culture of M9 minimal media.

B. subtilis = test: MIC evaluation of 3-HP, B. subtilis aerobic, M9 media + glutamate, 96 well-plate, 24 h (Common Methods); format: cell-based
Description: as §1
as §2, with “aerobically” for “anaerobically”, “Table” for “Table,”, “media+glutamate.” for “media.”

C. necator (R. eutropha) = test: MIC evaluation of 3-HP, C. necator (R. eutropha) aerobic, FGN media, 96 well-plate, 24 h (Common Methods); format: cell-based; conditions: for % Increase Over Control: supplements none, vs control, aerobic
Description: For MIC evaluations, the final results are expressed in chemical agent concentrations determined by analysis of the stock solution by HPLC (i.e., see Subsection IIIb). The minimum inhibitory concentration (MIC) was determined aerobically in a 96 well-plate format. […] Media supplements were added according to levels reported in Supplements Table, where specified. Overnight cultures of strains were grown in triplicate in 5 mL LB (with antibiotic where appropriate). […] The cells were further diluted 1:50 and a 10 μL aliquot was used to inoculate each well of a 96 well plate (˜10^4 cells per well) to total volume of 100 uL. […] Plates were incubated for 24 hours at 30 C.

[1] = test system: Yeast strains (S288C background); test: microbe, parasite or virus in culture; format: cell-based, Saccharomyces cerevisiae; conditions: for MIC: Saccharomyces cerevisiae
Description: The minimum inhibitory concentration (MIC) was determined aerobically in a 96 well-plate format. […] Media supplements were added according to levels reported in the Supplements Table, where specified. Overnight cultures of strains were grown in triplicate in 5 mL SD media with vitamins (Methods in Enzymology vol. 350, page 17 (2002)). A 1% (v/v) inoculum was introduced into a 5 ml culture of SD minimal media without vitamins. After the cells reached mid-exponential phase, the culture was diluted to an OD600 of 0.200. The cells were further diluted 1:5 and a 10 μL aliquot was used to inoculate each well of a 96 well plate (˜10^4 cells per well) to total volume of 100 uL. […] Plates were incubated for 72 hours at 30 C.

[2] = 3-HP preparation: neutralisation of commercial 3-HP to pH 7.0, observation of insoluble matter; format: physicochemical
Description: (§3) 3-HP was obtained from TCI America (Portland, Oreg.). Significant acrylic acid and 2-oxydipropionic contamination was observed via HPLC analysis. Samples were subsequently treated by diethyl ether extraction to remove acrylic acid and a portion of the 2-oxydipropionic contaminants. Samples were then neutralized with 10 M NaOH to a final pH of 7.0. […] The working stock solution was used for the selection and MIC evaluations in this example.
as §3, with “selection, growth rates” for “selection”

[3] = strain BSX_0003.0 (pWH1520), M9 + glu + trp + 1 mM Xylose

O=C(O)CCO [3-HP, 3-hydroxypropionic acid]
% Increase Over Control (E. coli; strain BX_00359.0 (pKK223-aroH*457)): 33%
% Increase Over Control (E. coli; strain BX_00360.0 (pACYC177 (Kan only)-cynTS)): 33%
% Increase Over Control (E. coli; strain BX_00362.0 (pACYC177 (Kan only)-aroH)): 33%
% Increase Over Control (E. coli; strain BX_00363.0 (pACYC177 (Kan only)-speB)): 33%
% Increase Over Control (E. coli; strain BX_00364.0 (pACYC177 (Kan only)-metE)): 33%
% Increase Over Control (E. coli; strain BX_00365.0 (pACYC177 (Kan only)-metC)): 33%
% Increase Over Control (E. coli; strain BX_00368.0 (pBT-3-cynTS)): 33%
% Increase Over Control (E. coli; strain BX_00426.0 (ΔnrdR::frt, pSmart-HC-Amp-cadA)): 7%
% Increase Over Control (B. subtilis; B. subtilis 168, M9 + glu + trp, supplements none (control)): 0%
% Increase Over Control (B. subtilis; [3]): 0%
Avg 24 hr ΔOD600 (B. subtilis; [3]): 0.00
Avg 24 hr ΔOD600 (B. subtilis; strain BSX_0011.0 (pWH1520-Pxyl:speB region), M9 + glu + trp + 1 mM Xylose): 0.07
Avg 24 hr ΔOD600 (B. subtilis; strain BSX_0015.0 (pWH1520-Pxyl:metE region), M9 + glu + trp + 1 mM Xylose): 0.06
% Increase Over Control (C. necator (R. eutropha); C. necator DSM 542, EZ Rich media): 200%
% Increase Over Control (C. necator (R. eutropha); C. necator DSM 542, FGN media): 0%
MIC (C. necator (R. eutropha); read-out: average MIC Assay Result (g/L 3-HP), C. necator DSM428, FGN media, supplements none (control), aerobic): 15 g/L (≈ 167 mM)
MIC (C. necator (R. eutropha); read-out: average MIC Assay Result (g/L 3-HP), C. necator DSM 542, EZ Rich media, supplements none, aerobic): 60 g/L (≈ 666 mM)
MIC (C. necator (R. eutropha); read-out: average MIC Assay Result (g/L 3-HP), C. necator DSM 542, FGN media, supplements none, aerobic): 15 g/L (≈ 167 mM)
% Increase Over Control ([1]; S288C, SC media vs SD control, aerobic): 33%
MIC ([1]; read-out: Average MIC Assay Result (g/L 3-HP), S288C, SC media, supplements none, aerobic): 60 g/L (≈ 666 mM)
MIC ([1]; read-out: Average MIC Assay Result (g/L 3-HP), S288C, SD media, supplements none (control), aerobic): 45 g/L (≈ 500 mM)
MIC ([1]; read-out: MIC Assay Result (g/L 3-HP), strain YX-022 (BY4722, pyes2.1-Aro3 pRS425-ILV6), SD, aerobic): 60 g/L (≈ 666 mM)
MIC ([1]; read-out: MIC Assay Result (g/L 3-HP), strain YX-CJR-001 (BY4709, pRS426 EV, control), SD, aerobic): 40 g/L (≈ 444 mM)
MIC ([1]; read-out: MIC Assay Result (g/L 3-HP), strain YX-CJR-002 (BY4709, pYes2.1-spe3), SD, aerobic): 50 g/L (≈ 555 mM)
MIC ([1]; read-out: MIC Assay Result (g/L 3-HP), strain YX-CJR-003 (BY4709, pYes2.1-hom2), SD, aerobic): 47 g/L (≈ 522 mM)
MIC ([1]; read-out: MIC Assay Result (g/L 3-HP), strain YX-CJR-005 (BY4709, pYes2.1-Met6), SD, aerobic): 50 g/L (≈ 555 mM)
MIC ([1]; read-out: MIC Assay Result (g/L 3-HP), strain YX-CJR-006 (BY4709, pYes2.1-Ilv2), SD, aerobic): 57 g/L (≈ 633 mM)
MIC ([1]; read-out: MIC Assay Result (g/L 3-HP), strain YX-CJR-010 (BY4709, pyes2.1-Thr1), SD, aerobic): 60 g/L (≈ 666 mM)
MIC ([1]; read-out: MIC Assay Result (g/L 3-HP), strain YX-CJR-014 (BY4709, pyes2.1-arg2), SD, aerobic): 60 g/L (≈ 666 mM)
MIC ([1]; read-out: MIC Assay Result (g/L 3-HP), strain YX-CJR-017 (BY4709, pyes2.1-Aro7), SD, aerobic): 70 g/L (≈ 777 mM)
% Increase Over Control ([1]; strain YX-022 (pyes2.1-Aro3 pRS425-ILV6) vs control, aerobic): 50%
% Increase Over Control ([1]; strain YX-CJR-002 (pYes2.1-spe3) vs YX-CJR-001, aerobic): 25%
% Increase Over Control ([1]; strain YX-CJR-003 (pYes2.1-hom2) vs YX-CJR-001, aerobic): 17%
% Increase Over Control ([1]; strain YX-CJR-005 (pYes2.1-Met6) vs YX-CJR-001, aerobic): 25%
% Increase Over Control ([1]; strain YX-CJR-006 (pYes2.1-Ilv2) vs YX-CJR-001, aerobic): 42%
% Increase Over Control ([1]; strain YX-CJR-010 (pyes2.1-Thr1) vs YX-CJR-001, aerobic): 50%
% Increase Over Control ([1]; strain YX-CJR-014 (pyes2.1-arg2) vs YX-CJR-001, aerobic): 50%
% Increase Over Control ([1]; strain YX-CJR-017 (pyes2.1-Aro7) vs YX-CJR-001, aerobic): 75%
3-HP concentration in excess of which considerable 3-HP polymerization was observed at neutral pH ([2]; commercial 3-HP (TCI America), ether extracted, neutralized with 10 M NaOH to pH 7.0): approximately 35 g/L
solubility ([2]; pH 7, aqueous buffer): ~35 mg/mL (≈ 389 mM)
